For one data set, the target named is T1, IGF-1R (Homo sapiens, UniProt P08069).
T1 construct: endogenous in cells; host or cells: LN686 cells
Nature of the data set: IGF-1-induced IGF-1R phosphorylation, Western blot. It counts as cell-based. The conditions noted are these: LN686 cells, cixutumumab 6 h, then 100 ng/ml IGF-1 for 30 min. The protocol:
Preparation of total cell lysates, Western blot analysis, and immunoprecipitation were performed according to methods described in our previous report (Morgillo et al., 2006).
LN686 cells were treated with increasing concentrations of cixutumumab for 6 h, and then stimulated with 100 ng/ml IGF-1 for 30 min.
A general note: In western blotting, separated proteins are transferred to a membrane and probed.

Data set [1] deals with LN686, H226B, UMSCC38 and A549m xenograft tumors. The data set is described as follows: Xenograft tumors of drug-resistant and -sensitive cells in nude mice. The settings on record: intraperitoneal, 25 mg/kg twice a week. Type of data set: in vivo. The protocol: (§1) LN686, UMSCC38, H226B, or A549m cells (1×10^6 cells/mouse in 100 μl of PBS) were subcutaneously injected into nude mice at a single dorsal flank site (6-9 mice per group). For HNSCC patient-derived tumor xenografts, primary human tumor specimens were collected from an untreated patient who underwent lobectomies of squamous carcinoma of the oral cavity. The tumors were cut into small pieces with a size of 2-mm^3 and subcutaneously implanted into the nude mice (one piece per mouse). At 0 day (the time point when tumor size reached to 80 to 100 mm^3) mice were treated with cixutumumab (10 mg/kg, i.p., once or twice a week), Ad-EV (3×10^11 pfu, intratumoral injection, once a week), Ad-CSK (3×10^11 pfu, intratumoral injection, once a week), siCon, siintegrin β3 ([…], i.p., once a week), dasatinib (20 mg/kg, oral gavage, daily), cixutumumab and Ad-CSK, or cixutumumab and dasatinib.
Tumor xenografts were treated with vehicle or cituxumumab (intraperitoneal, 25 mg/kg) twice a week. Data are presented as mean tumor volume ±SD for indicated time or mean tumor weight at the date of euthanasia ±SD (*P<0.05, **P<0.01, ***P<0.001). […] Thus, antitumor activity of cixutumumab was consistent in cells grown in 3D (or 3D-mimicking) conditions in vitro and in those grown in vivo.

A further data set concerns LN686 tumor xenografts. Nature of the data set: LN686 xenograft, cixutumumab and Ad-CSK. It counts as in vivo, mouse. The conditions noted are these: after 21 days. The method, then: as §1
To further determine the effects of inhibiting integrin β3/Src signaling on antitumor activities of cixutumumab, an adenovirus expressing c-Src tyrosine kinase that phosphorylates the autoinhibitory tyrosine 527 was used (Yeatman, 2004). […]

In data set [2] the test system is 13 HNSCC and 6 NSCLC cells. The data set is described as follows: MTS viability assay in PCPs and UAPs. It counts as cell-based, human. The settings on record: PCPs, 25 μg/ml, 7 days. The method, then: Cells were cultured in 96-well poly(poly-2-hydroxyethyl methacrylate [HEMA])-coated plates (PCPs) or ultra-low attached plates (UAPs). Control IgG1 (25 μg/ml), cixutumumab (25 μg/ml), PP2 (10 μM), and an integrin β3 neutralizing antibody B3A (10 μg/ml) were diluted in culture media containing 10% FBS or IGF-1 and treated alone or in combination. To examine the effect on cancer cell proliferation, a 3-(4,5-dimethylthiazol-2-yl)-2,5-diphenyltetrazolium bromide (MTT) or 3-(4,5-dimethylthiazol-2-yl)-5-(3-carboxymethoxyphenyl)-2-(4-sulfophenyl)-2H-tetrazolium (MTS) assay was performed, and to evaluate the effect on anchorage-independent colony formation, a soft agar colony formation assay was performed according to a method in our previous report (Morgillo et al., 2006).
The PCPs were prepared according to a previously reported method (Fukazawa et al., 1995). In brief, tissue culture plates were collated twice with poly-(HEMA) (10 mg/ml in 95% ethanol) at 37° C. and then washed with phosphate-buffered saline (PBS) several times.
HNSCC and NSCLC cells grown in PCPs and UAPs were treated with cixutumumab (25 μg/ml) for 7 days. Each bar represents mean±SD of 6 wells of a single representative experiment.
A general note: Tetrazolium assays rely on reduction of a dye to a coloured formazan, in cell work by metabolically active cells.

Another data set has as its system HNSCC and NSCLC cells. Nature of the data set: Soft agar colony formation assay. It counts as cell-based, human. The protocol: To evaluate the effect on anchorage-independent colony formation, cells were suspended in 0.4% agar in media at a density of 2×10^3 cells per well, replated in 12-well plates that have been pre-coated with 0.8% agar, and cultured in growth medium containing cixutumumab (25 μg/ml) for 2-6 weeks. Cells were stained with 0.1% Coomassie brilliant blue in PBS, and the colonies >0.2 mm in diameter were counted. Independent experiments were repeated three times.
Because cells grown in the 3D environment might differ from cells growing in PCPs and UAPs, the present inventor evaluated the effects of cixutumumab on cell growth in soft agar, a 3D culture system. 10 HNSCC and 6 NSCLC cells were cultured in soft agar for 4 to 6 weeks in the presence or absence of cixutumumab (25 μg/ml).

From US20140341922A1, “Method for Overcoming Tolerance to Targeted Anti-Cancer Agent” (SUN R&DB Foundation, priority 2011, published 2014) come the findings set out here.

“Also recorded” adds a separate entry of the source.

T1 sequence (P08069 31-1367): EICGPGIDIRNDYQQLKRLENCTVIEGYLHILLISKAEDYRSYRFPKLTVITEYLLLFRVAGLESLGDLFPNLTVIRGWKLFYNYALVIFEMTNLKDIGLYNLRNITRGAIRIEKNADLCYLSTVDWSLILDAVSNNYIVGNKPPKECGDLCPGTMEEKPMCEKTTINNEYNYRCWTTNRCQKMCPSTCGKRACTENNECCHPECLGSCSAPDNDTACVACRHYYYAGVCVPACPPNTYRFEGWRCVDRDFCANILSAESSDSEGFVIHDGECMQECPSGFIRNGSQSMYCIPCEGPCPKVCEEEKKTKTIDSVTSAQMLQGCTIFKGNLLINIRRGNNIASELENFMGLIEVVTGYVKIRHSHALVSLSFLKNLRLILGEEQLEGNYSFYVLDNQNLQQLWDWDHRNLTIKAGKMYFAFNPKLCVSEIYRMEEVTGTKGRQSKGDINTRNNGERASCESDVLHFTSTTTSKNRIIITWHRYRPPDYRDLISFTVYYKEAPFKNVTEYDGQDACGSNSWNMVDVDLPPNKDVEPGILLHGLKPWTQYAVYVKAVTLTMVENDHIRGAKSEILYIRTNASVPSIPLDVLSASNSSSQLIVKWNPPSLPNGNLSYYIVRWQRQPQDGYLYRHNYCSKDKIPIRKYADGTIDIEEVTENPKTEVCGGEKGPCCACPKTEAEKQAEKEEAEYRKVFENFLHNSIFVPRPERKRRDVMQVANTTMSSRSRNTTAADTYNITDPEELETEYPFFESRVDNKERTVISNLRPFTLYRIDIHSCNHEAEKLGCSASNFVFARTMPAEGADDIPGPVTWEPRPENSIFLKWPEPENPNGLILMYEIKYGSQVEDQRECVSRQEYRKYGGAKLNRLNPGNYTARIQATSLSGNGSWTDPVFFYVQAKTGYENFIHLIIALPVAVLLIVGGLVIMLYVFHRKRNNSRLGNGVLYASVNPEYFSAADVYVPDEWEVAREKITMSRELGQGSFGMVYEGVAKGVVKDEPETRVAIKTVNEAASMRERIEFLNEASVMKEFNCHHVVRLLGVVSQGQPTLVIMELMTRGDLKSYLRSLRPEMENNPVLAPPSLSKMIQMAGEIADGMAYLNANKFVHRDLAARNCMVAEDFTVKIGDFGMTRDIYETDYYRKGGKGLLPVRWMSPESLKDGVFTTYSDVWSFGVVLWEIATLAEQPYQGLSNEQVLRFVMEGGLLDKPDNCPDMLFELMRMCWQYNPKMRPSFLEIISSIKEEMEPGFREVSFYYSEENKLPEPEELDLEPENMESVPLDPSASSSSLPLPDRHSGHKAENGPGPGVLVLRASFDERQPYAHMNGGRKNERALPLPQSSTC

As to “cixutumumab: humanized mAb targeting IGF-1R, provided by ImClone Systems”, the “IGF-1-induced IGF-1R phosphorylation” value with IGF-1R is listed as “markedly inhibited; also recorded: concentration-dependent inhibitory effect”. Besides, the “growth and weight of xenograft tumors” value is given as “no significant effects” in data set [1] (LN686 and H226B xenografts); “significantly decreased” in data set [1] (UMSCC38 and A549 xenografts). The “mean tumor weight compared to a control group” value with LN686 tumor xenografts is reported as 96%. The inhibition in viability result was “less than 20%” in data set [2] (7 HNSCC and 2 NSCLC cell lines (red, resistant)); “more than 60%” in data set [2] (remaining 2 HNSCC and 2 NSCLC cell lines (black, sensitive)). In addition, the “colony formation in soft agar” value in the data set on HNSCC and NSCLC cells (OSC19 and A549 cells, 3D system) is “concentration-dependent inhibitory effects”. Further, the “colonies formed in soft agar” value in the data set on HNSCC and NSCLC cells (sensitive NSCLC and HNSCC lines vs resistant and mildly sensitive lines, 25 μg/ml, 4 to 6 weeks) was “significantly fewer colonies”.
